# In PMC11219945, “Assessing genotoxic effects of chemotherapy agents by a robust in vitro assay based on mass spectrometric quantification of γ-H2AX in HepG2 cells” (Frontiers in Pharmacology, 2024):
# Where a name gives a salt, the structure may show the parent alone.
# Assays:
# [1] = system: γ-H2AX in HepG2 cells; experiment: γ-H2AX MS assay, dose-effect relationship in HepG2 cells; details: for Genotoxicity in γ-H2AX MS assay: tested concentration 1 mM
# Procedure: Human hepatoblastoma cells (HepG2) were cultivated in DMEM medium under standard conditions (37°C in a 5% CO2 atmosphere). The culturing medium was added with 10% FBS, 100 U/mL penicillin and 100 μg/mL streptomycin.
# In accordance to our previous study, cells were exposed to the chemotherapeutic agent by adding a proper volume of chemotherapeutic agent stock solution to the fresh medium without serum. Controls were treated with DMSO (0.1%) in medium. Independent biological experiments with three technical replicates were conducted.
# The cells were then treated with different chemotherapy agents in serum-free medium. For a dose-effect relationship experiment, cells were exposed to each agent at either of three concentrations with a 10-fold increase for 24 h. For the time-effect relationship experiment of nine tested chemotherapy agents, cells were exposed to selected chemotherapy agents at 0.5, 1, 2, 4, 8, 12, and 24 h, with the concentration of 100 μM. Independent biological experiments with three technical replicates were performed.
# (§1) The quantification of γ-H2AX was carried out according to the previous report ([Qu et al., 2021]). In short, the cell clumps were collected after a certain period of cell culture and histones were obtained by acid extraction. After nuclear isolation, histone extraction, trypsin digestion in the solution, and desalting, the peptide sample from the carboxy terminus of H2AX was analyzed. LC–MS/MS analysis was conducted using a QTRAP 5500 (AB Sciex, Framingham, United States) with an ACQUITY UPLC system (Waters Co., Manchester, United Kingdom). Chromatographic separation was carried out with an ACQUITY UPLC BEH C18 column (100 mm × 2.1 mm, 1.7 μm). The column temperature was maintained at 40°C. A 10 μL sample aliquot was injected for analysis. Mobile phases A and B were 0.1% FA in distilled H2O and acetonitrile, respectively. […] The eluent composition was maintained for 2 min, after which the system returned to 1% B and was re-equilibrated for 2 min. The eluates in the first 1 min were switched to waste to prevent contaminating the ion source. The electrospray ionization source was operated in positive mode using nitrogen as the nebulizing gas. All experiments were performed independently in at least triplicate.
# To this end, we firstly examined the cytotoxicity of 34 chemotherapy agents, all of which were already well classified in terms of diverse characteristics. These tested chemotherapy agents were serially diluted for exposure to check the effects on cell viability.
# [2] = combination of in vitro mouse lymphoma, chromosomal aberration, and micronucleus tests; cited from earlier work
# [3] = system: γ-H2AX in HepG2 cells; experiment: γ-H2AX time-effect relationship / DNA repair kinetics (k, t50) in HepG2 cells; format: cell-based, Human; set-up: k (speed of γ-H2AX descending): unit not given here; details: 100 μM, 0.5–8 h time-dependent kinetics
# Procedure: The cells were then treated with different chemotherapy agents in serum-free medium. […] Independent biological experiments with three technical replicates were performed.
# as §1, with “In” for “The quantification of γ-H2AX was carried out according to the previous report ([Qu et al., 2021]). In”
# Here, we estimated k and t50 after exposure to nine representative chemotherapy agents based on the 0.5–8 h γ-H2AX time-dependent kinetics (Figure 5) and then obtained these parameters to describe each agent DSB repair capacity using the functions optim and optimize in R language.
molecule,measurement,setting,value
O=c1[nH]cc(F)c(=O)[nH]1 [5-fluorouracil],maximum γ-H2AX value within the selected concentration range,"[1]; human, 24 h",5.2
same,In vitro assays (genotoxicity),[2],+
O=C1c2c(O)ccc(O)c2C(=O)c2c(NCCNCCO)ccc(NCCNCCO)c21 [Mitoxantrone],k (speed of γ-H2AX descending),[3],0.111
same,t50 (time required for γ-H2AX to drop to half of the maximum value),[3],7.999 h
same,In vitro assays (genotoxicity),[2],+
CCC1(c2ccc(N)cc2)CCC(=O)NC1=O (centres unmarked) [Aminoglutethimide],maximum γ-H2AX value within the selected concentration range,"[1]; human, 24 h",2.9
same,In vitro assays (genotoxicity),[2],−
NC(=O)NO [Hydroxyurea],MEC in γ-H2AX MS assay,[1],1 mM
same,In vitro assays (genotoxicity),[2],+
C[C@]12CCC(=O)C(O)=C1CC[C@@H]1[C@@H]2CC[C@]2(C)C(=O)CC[C@@H]12 [Formestane],maximum γ-H2AX value within the selected concentration range,"[1]; HepG2 cells, 24 h",3.2
same,Genotoxicity in γ-H2AX MS assay,"[1]; HepG2 cells, 24 h",none of the selected antitumor hormones exhibited genotoxicity
same,In vitro assays (genotoxicity),[2],−
Deoxyfluridine,k (speed of γ-H2AX descending),[3],4.157
same,t50 (time required for γ-H2AX to drop to half of the maximum value),[3],1.201 h
same,value of γ-H2AX,"[1]; HepG2 cells, 100 μM of exposure concentration",8.4
same,maximum γ-H2AX value within the selected concentration range,"[1]; HepG2 cells, 24 h",8.4
same,γ-H2AX MEC/MS (minimum effective concentration),"[1]; HepG2 cells, 24 h exposure",↑(10) µM
same,γ-H2AX MEC/MS (minimum effective concentration),"[1]; HepG2 cells, 24 h exposure, listed as deoxyfluridine",10 µM
same,In vitro assays (genotoxicity),[2],+
CC[C@@]1(O)C(=O)OCc2c1cc1n(c2=O)Cc2c-1nc1cc(F)c(C)c3c1c2[C@@H](N)CC3 [Exatecan],k (speed of γ-H2AX descending),[3],0.114
same,t50 (time required for γ-H2AX to drop to half of the maximum value),[3],3.925 h
same,maximum γ-H2AX value within the selected concentration range,"[1]; human, 24 h",19.2
same,In vitro assays (genotoxicity),[2],+
O=C1[O][Pt]2([NH][C@@H]3CCCC[C@H]3[NH]2)[O]C1=O [Oxaliplatin],maximum γ-H2AX value within the selected concentration range,"[1]; HepG2 cells, 24 h",7.51
same,γ-H2AX MEC/MS (minimum effective concentration),"[1]; HepG2 cells, 24 h exposure",↑(100) µM
same,γ-H2AX MEC/MS (minimum effective concentration),"[1]; HepG2 cells, 24 h exposure, listed as oxaliplatin",100 µM
same,In vitro assays (genotoxicity),[2],+
CCCCCCNC(=O)n1cc(F)c(=O)[nH]c1=O [Carmofur],maximum γ-H2AX value within the selected concentration range,"[1]; human, 24 h",6.3
same,In vitro assays (genotoxicity),[2],+
C=C1C[C@@H]2[C@H](CC[C@]3(C)C(=O)CC[C@@H]23)[C@@]2(C)C=CC(=O)C=C12 [Exemestane],maximum γ-H2AX value within the selected concentration range,"[1]; human, 24 h",3.1
same,In vitro assays (genotoxicity),[2],−
CC(=O)O[C@H]1C(=O)[C@@]2(C)[C@H]([C@H](OC(=O)c3ccccc3)[C@]3(O)C[C@H](OC(=O)[C@H](O)[C@@H](NC(=O)c4ccccc4)c4ccccc4)C(C)=C1C3(C)C)[C@]1(OC(C)=O)CO[C@@H]1C[C@@H]2O [Paclitaxel],Variation of γ-H2AX,"[1]; human, 24 h",no variations of γ-H2AX
O=P1(NCCCl)OCCCN1CCCl (centres unmarked) [Ifosfamide],γ-H2AX MEC/MS (minimum effective concentration),"[1]; HepG2 cells, 24 h exposure",↑(1000) µM
CC[C@@]1(O)C(=O)OCc2c1cc1n(c2=O)Cc2cc3c(CN(C)C)c(O)ccc3nc2-1 [Topotecan],k (speed of γ-H2AX descending),[3],0.132
same,t50 (time required for γ-H2AX to drop to half of the maximum value),[3],3.545 h
same,maximum γ-H2AX value within the selected concentration range,"[1]; human, 24 h",18.4
same,In vitro assays (genotoxicity),[2],+
O=P1(N(CCCl)CCCl)NCCCO1 (centres unmarked) [Cyclophosphamide],maximum γ-H2AX value within the selected concentration range,"[1]; HepG2 cells, 24 h",7.4
same,Genotoxicity in γ-H2AX MS assay,"[1]; HepG2 cells, 24 h",genotoxic
same,γ-H2AX MEC/MS (minimum effective concentration),"[1]; HepG2 cells, 24 h exposure",↑(1000) µM
same,In vitro assays (genotoxicity),[2],+
CCC1=C[C@@H]2CN(C1)Cc1c([nH]c3ccccc13)[C@@](C(=O)OC)(c1cc3c(cc1OC)N(C)[C@H]1[C@@](O)(C(=O)OC)[C@H](OC(C)=O)[C@]4(CC)C=CCN5CC[C@]31[C@@H]54)C2 [Vinorelbine],Variation of γ-H2AX,"[1]; human, 24 h",no variations of γ-H2AX
same,maximum γ-H2AX value within the selected concentration range,"[1]; human, 24 h",3.3
COc1cc([C@@H]2c3cc4c(cc3[C@@H](O[C@@H]3O[C@@H]5CO[C@@H](C)O[C@H]5[C@H](O)[C@H]3O)[C@H]3COC(=O)[C@H]23)OCO4)cc(OC)c1O [Etoposide],In vitro assays (genotoxicity),[2],+
Nc1nc2nc[nH]c2c(=S)[nH]1 [Thioguanine],maximum γ-H2AX value within the selected concentration range,"[1]; human, 24 h",6.6
same,In vitro assays (genotoxicity),[2],+
COc1cccc2c1C(=O)c1c(O)c3c(c(O)c1C2=O)C[C@@](O)(C(=O)CO)C[C@@H]3O[C@H]1C[C@H](N)[C@H](O[C@@H]2CCCCO2)[C@H](C)O1 [Pirarubicin],maximum γ-H2AX value within the selected concentration range,"[1]; HepG2 cells, 24 h",22
same,γ-H2AX MEC/MS (minimum effective concentration),"[1]; HepG2 cells, 24 h exposure",↑(0.01) µM
same,γ-H2AX MEC/MS (minimum effective concentration),"[1]; HepG2 cells, 24 h exposure, listed as pirarubicin",0.01 µM
same,In vitro assays (genotoxicity),[2],+
CC(C)(C#N)c1cc(Cn2cncn2)cc(C(C)(C)C#N)c1 [Anastrozole],In vitro assays (genotoxicity),[2],−
Sc1ncnc2nc[nH]c12 [6-mercaptopurine],maximum γ-H2AX value within the selected concentration range,"[1]; human, 24 h",5.82
same,In vitro assays (genotoxicity),[2],+
COc1cc([C@@H]2c3cc4c(cc3[C@@H](O[C@@H]3O[C@@H]5CO[C@@H](c6cccs6)O[C@H]5[C@H](O)[C@H]3O)[C@H]3COC(=O)[C@H]23)OCO4)cc(OC)c1O [Teniposide],maximum γ-H2AX value within the selected concentration range,"[1]; human, 24 h",13.2
same,In vitro assays (genotoxicity),[2],+
Cc1ncc(CNC(=O)N(CCCl)N=O)c(N)n1 [Nimustine],k (speed of γ-H2AX descending),[3],0.160
same,t50 (time required for γ-H2AX to drop to half of the maximum value),[3],2.465 h
same,γ-H2AX MEC/MS (minimum effective concentration),"[1]; HepG2 cells, 24 h exposure",↑(0.01) µM
same,γ-H2AX MEC/MS (minimum effective concentration),"[1]; HepG2 cells, 24 h exposure, listed as nimustine",0.01 µM
CC[C@]1(O)C[C@H]2CN(CCc3c([nH]c4ccccc34)[C@@](C(=O)OC)(c3cc4c(cc3OC)N(C=O)[C@H]3[C@@](O)(C(=O)OC)[C@H](OC(C)=O)[C@]5(CC)C=CCN6CC[C@]43[C@@H]65)C2)C1 [Vincristine],Variation of γ-H2AX,"[1]; human, 24 h",no variations of γ-H2AX
same,maximum γ-H2AX value within the selected concentration range,"[1]; human, 24 h",3
CC/C(=C(\c1ccccc1)c1ccc(OCCN(C)C)cc1)c1ccccc1 [Tamoxifen],maximum γ-H2AX value within the selected concentration range,"[1]; human, 24 h",3.1
same,In vitro assays (genotoxicity),[2],−
N#Cc1ccc(C(c2ccc(C#N)cc2)n2cncn2)cc1 [Letrozole],maximum γ-H2AX value within the selected concentration range,"[1]; human, 24 h",3.1
same,In vitro assays (genotoxicity),[2],−
CN(C)/N=N/c1[nH]cnc1C(N)=O [Dacarbazine],maximum γ-H2AX value within the selected concentration range,"[1]; human, 24 h",5.8
same,In vitro assays (genotoxicity),[2],+
COc1cccc2c1C(=O)c1c(O)c3c(c(O)c1C2=O)C[C@@](O)(C(=O)CO)C[C@@H]3O[C@H]1C[C@H](N)[C@@H](O)[C@H](C)O1 [Epirubicin hydrochloride],maximum γ-H2AX value within the selected concentration range,"[1]; human, 24 h",18
same,γ-H2AX MEC/MS (minimum effective concentration),"[1]; human, 24 h",0.01 µM
same,In vitro assays (genotoxicity),[2],+
O=NN(CCCl)C(=O)NCCCl [Carmustine],k (speed of γ-H2AX descending),[3],0.169
same,t50 (time required for γ-H2AX to drop to half of the maximum value),[3],2.298 h
same,γ-H2AX MEC/MS (minimum effective concentration),"[1]; HepG2 cells, 24 h exposure",↑(0.01) µM
same,γ-H2AX MEC/MS (minimum effective concentration),"[1]; HepG2 cells, 24 h exposure, listed as carmustine",0.01 µM
O=c1[nH]c(=O)n(C2CCCO2)cc1F (centres unmarked) [Tegafur],k (speed of γ-H2AX descending),[3],3.015
same,t50 (time required for γ-H2AX to drop to half of the maximum value),[3],1.442 h
same,value of γ-H2AX,"[1]; human, 100 μM",7.2
same,maximum γ-H2AX value within the selected concentration range,"[1]; human, 24 h",7.2
same,In vitro assays (genotoxicity),[2],+
N.N.O=C([O-])C1(C(=O)[O-])CCC1.[Pt+2] [Carboplatin],maximum γ-H2AX value within the selected concentration range,"[1]; HepG2 cells, 24 h",7.2
same,γ-H2AX MEC/MS (minimum effective concentration),"[1]; HepG2 cells, 24 h exposure",↑(100) µM
same,γ-H2AX MEC/MS (minimum effective concentration),"[1]; HepG2 cells, 24 h exposure, listed as carboplatin",100 µM
same,In vitro assays (genotoxicity),[2],+
